# Measurements from article PMC7796460, “Relation of Metal-Binding Property and Selective Toxicity of 8-Hydroxyquinoline Derived Mannich Bases Targeting Multidrug Resistant Cancer Cells” (Cancers, 2021).
# Where two headings read alike, the source gives them in different places.
# Key:
# [1] = system: MES-SA cells; assay: MTT viability assay, MES-SA; assay type: cell-based, human; conditions: Homo sapiens, MES-SA; Table 2, value outside brackets; read-out: MES-SA (toxicity, Table 2)
# Text: (§1) MDCK II canine kidney cells, A431 epidermoid carcinoma cells, the human uterine sarcoma cell lines MES-SA and the doxorubicin selected MES-SA-Dx5 were obtained from ATCC (MDCK II: No. CRL-2936™, A431: No. CRL-1555™, MES-SA: No. CRL-1976™, MES-SA/Dx5: No. CRL-1977™). ABCB1 was expressed in A431 and MES-SA cells using lentiviral transduction. The human cervix carcinoma cell line KB-3-1 and the vinblastine selected KB-v1were kind gifts from Dr. Michael M. Gottesman, National Institutes of Health. The phenotype of the resistant cells was verified using cytotoxicity assays. MDCK-B1 and MDCK-MM were established by the Sleeping Beauty transposon-based gene delivery system. OVCAR-8 and NCI-ADRres cells (obtained from the Division of Cancer Treatment and Diagnosis (DCTD) Tumor Repository (National Cancer Institute, Frederick, MD, USA)) were cultivated in RPMI-1640 (Sigma Aldrich, Budapest, Hungary), and other cell lines were cultivated in Dulbecco’s Modified Eagle Medium (DMEM, Sigma Aldrich, Budapest, Hungary), supplemented with 10% fetal bovine serum, 5 mM glutamine, and 50 unit/mL penicillin and streptomycin (Life Technologies, Carlsbad, CA, USA). All cell lines were cultivated at 37 °C, 5% CO2.
# (§2) MTT viability assays were performed as described earlier with minor modifications. Briefly, cells were seeded into 96-well tissue culture plates (Sarstedt, Newton, NC, USA/Orange, Braine-l’Alleud, Belgium) at a density of 5000 cells/well and allowed to attach overnight. Test compounds were added to achieve the required final concentration in a final volume of 100 µL per well. After an incubation period of 72 h, the supernatant was removed and fresh medium containing the MTT reagent (0.083 mg/mL) was added. Incubation with MTT at 37 °C was terminated after 1 h by removing the supernatant and lysing the cells with 100 µL DMSO per well. Viability of the cells was measured spectrophotometrically based on the absorbance values at 540 nm using either a Perkin Elmer Victor X3 or an EnSpire microplate reader. Data were background corrected by subtraction of the signal obtained from unstained cell lysates and normalized to untreated cells. Curves were fitted by Prism software (GraphPad Software Inc., San Diego, CA, USA) using the sigmoidal dose-response model (comparing variable and fixed slopes). […] Significance was calculated using unpaired t-tests; results are given as *: p ≤ 0.05, **: p ≤ 0.01, ***: p ≤ 0.001, ****: p ≤ 0.0001.
# [2] = system: MES-SA/Dx5 cells; assay: MTT viability assay, MES-SA/Dx5; assay type: cell-based, human; conditions: for IC50: Homo sapiens, MES-SA/Dx5, read-out: MES-SA/Dx5 (toxicity, Table 2)
# Text: as §1, §2
# [3] = pKa by UV-visible spectrophotometric titrations; assay type: physicochemical; conditions: 0.2 M KCl (ionic strength), T = 25 °C, I = 0.2 M (KCl)
# [4] = system: MES-SA cells; assay: ROS determination with DCFDA, MES-SA; assay type: cell-based, human; conditions: 2 h
# Experimental: (§3) Measurements were performed as described earlier. Briefly, cells were harvested, washed with PBS, and incubated with 10 µM DCFDA in a water bath shaker at 37 °C for 30 min in a density of 3 × 10^6 cells/mL. After washing with PBS, cells were seeded to 96-well plates in PBS in a density of 2 × 10^4 cells/well. Following the measurement of the basal fluorescence, test compounds were added in different concentrations and the fluorescence of the samples was followed at time intervals of 10 min. DCFDA solution in buffer was used as a cell free control to test for interaction of the test compounds with DCFDA. Data were analyzed as fold change of fluorescence compared to basal levels and untreated cells. Significance was calculated using unpaired t-tests; results are given as *: p ≤ 0.05, **: p ≤ 0.01, ***: p ≤ 0.001, ****: p ≤ 0.0001.
# (§4) Table S3: Characterization of intracellular ROS production with the DCFDA assay for P -gp negative MES-SA and P-gp positive MES-SA/Dx5 cells. Fold changes in fluorescence are shown after a 2 h with the investigated 8 -hydroxyquinoline ligands. Data S-refer to Figure 7 and allow […]
# (§5) concentration range from 6.25µ M to 50µ M. Fold change of fluorescence obtained in the presence of 5 mM NAC is given in brackets.
# [5] = system: MES-SA/Dx5 cells; assay: ROS determination with DCFDA, MES-SA/Dx5; assay type: cell-based, human; conditions: 2 h
# Experimental: as §3, §4, §5
# [6] = Table 2, value outside brackets
# [7] = Table 2, value in brackets (Tariquidar as in Table 1)
# [8] = group named in the cell (NmorpholiniumH+, NpiperidiniumH+, NbenzylamineH2+), read-out: pKa (additional)
# [9] = 6.25 µM, presence of 5 mM NAC (brackets)
# [10] = 12.5 µM, presence of 5 mM NAC (brackets)
# [11] = 25 µM, presence of 5 mM NAC (brackets)
# [12] = 50 µM, presence of 5 mM NAC (brackets)
# [13] = MES-SA/Dx5, 6.25 µM, presence of 5 mM NAC (brackets)
# [14] = MES-SA/Dx5, 12.5 µM, presence of 5 mM NAC (brackets)
# [15] = MES-SA/Dx5, 25 µM, presence of 5 mM NAC (brackets)
# [16] = MES-SA/Dx5, 50 µM, presence of 5 mM NAC (brackets)
SMILES,IC50 [1],"IC50 [2, 6]","SR MES-SA/Dx5 (Table 2) [2, 7]","SR MES-SA/Dx5 (Table 2) [2, 6]","pKa [3, 8]",pKa ([3]; read-out: pKa (NquinoliniumH+)),pKa ([3]; read-out: pKa (OH)),Fold change in fluorescence (DCFDA) ([4]; 6.25 µM),"Fold change in fluorescence (DCFDA) [4, 9]",Fold change in fluorescence (DCFDA) ([4]; 12.5 µM),"Fold change in fluorescence (DCFDA) [4, 10]",Fold change in fluorescence (DCFDA) ([4]; 25 µM),"Fold change in fluorescence (DCFDA) [4, 11]",Fold change in fluorescence (DCFDA) ([4]; 50 µM),"Fold change in fluorescence (DCFDA) [4, 12]","Fold change in fluorescence (DCFDA) ([5]; MES-SA/Dx5, 6.25 µM)","Fold change in fluorescence (DCFDA) [5, 13]","Fold change in fluorescence (DCFDA) ([5]; MES-SA/Dx5, 12.5 µM)","Fold change in fluorescence (DCFDA) [5, 14]","Fold change in fluorescence (DCFDA) [5, 15]",also measured
Oc1c(CN2CCOCC2)cc(Cl)c2cccnc12 [Compound 5-Cl-Q-2],1400 ± 240 nM,640 ± 30 nM,1.39,2.19,5.83 ± 0.02,< 2,9.68 ± 0.03,1.896± 0.32,1.600± 0.55,2.226± 0.39,1.263± 0.62,2.086± 0.66,1.309± 0.51,2.609± 0.77,1.178± 0.40,2.594± 0.87,1.246± 0.47,3.214± 0.86,1.651± 0.73,1.265± 0.27,"Fold change in fluorescence (DCFDA) ([5]; MES-SA/Dx5, 50 µM): 4.697± 3.24; Fold change in fluorescence (DCFDA) [5, 16]: 1.462± 0.39"
Oc1c(CN2CCCCC2)cc(Cl)c2cccnc12 [Compound 5-Cl-Q-3],1300 ± 210 nM,150 ± 10 nM,1.61,8.40,7.16 ± 0.03,1.61 ± 0.04,4.85 ± 0.02,1.672± 0.27,1.307± 0.51,1.861± 0.40,1.542± 0.35,1.812± 0.27,1.382± 0.67,2.075± 0.68,1.155± 0.25,1.975± 0.50,1.024± 0.19,1.954± 0.42,0.954± 0.14,1.005± 0.21,"Fold change in fluorescence (DCFDA) ([5]; MES-SA/Dx5, 25 µM): 2.714± 0.84; Fold change in fluorescence (DCFDA) ([5]; MES-SA/Dx5, 50 µM): 3.077± 1.29; Fold change in fluorescence (DCFDA) [5, 16]: 1.086± 0.14"
